Reference: US20200377481A1, “SUBSTITUTED 4-(1-PYRROLIDINYL)PYRIMIDINE COMPOUNDS AS DIMERIZATION INHIBITORS OF NEURONAL NITRIC OXIDE SYNTHASE” (Northwestern University, priority 2016, published 2020)

Experiments:
[1] = biological target: T1, nNOS (Rattus norvegicus, UniProt P29476); assay: nNOS Dimerization Inhibition assay (Griess, Hek293 cells expressing rat nNOS); format: cell-based
T1 construct: expressed in transfected cells; host or cells: HEK293 (stably transduced, G418 selection)
Procedure: (§1) nNOS Dimerization Inhibition assay. Hek293 cells stably transduced to express rat nNOS were grown to confuency in DMEM supplemented with 10% FBS, pen/strep and 0.4 mg/mL G418. Cells were then plated into 96 well plates at 50,000 cells per well. After 12 h of growth a serial dilution of test compound was added with a vehicle control leaving one additional lane empty as a second activator control. Compounds and cells were allowed to interact for 48 h to allow for full degradation of undrugged active dimeric species. After 48 h […] of a 10 mM calcium ionophore stock was added. After 4 h, 50 uL of the media from each well was removed and mixed with 50 uL Griess Reagent 1 (Promega Griess assay kit). This mixture was incubated for 5 mins and then 50 uL Reagent 2 was added. The plate was read at 530 nm and an IC50 calculated.

[2] = biological target: T2, iNOS (Mus musculus, UniProt P29477); assay: iNOS Dimerization Inhibition assay (Griess, Raw 264.7 cells, LPS/IFN-γ); format: cell-based, murine
T2 construct: endogenous in cells; host or cells: Raw 264.7 cells stimulated with E. coli LPS and IFN-gamma
T2 sequence (P29477 1-1144): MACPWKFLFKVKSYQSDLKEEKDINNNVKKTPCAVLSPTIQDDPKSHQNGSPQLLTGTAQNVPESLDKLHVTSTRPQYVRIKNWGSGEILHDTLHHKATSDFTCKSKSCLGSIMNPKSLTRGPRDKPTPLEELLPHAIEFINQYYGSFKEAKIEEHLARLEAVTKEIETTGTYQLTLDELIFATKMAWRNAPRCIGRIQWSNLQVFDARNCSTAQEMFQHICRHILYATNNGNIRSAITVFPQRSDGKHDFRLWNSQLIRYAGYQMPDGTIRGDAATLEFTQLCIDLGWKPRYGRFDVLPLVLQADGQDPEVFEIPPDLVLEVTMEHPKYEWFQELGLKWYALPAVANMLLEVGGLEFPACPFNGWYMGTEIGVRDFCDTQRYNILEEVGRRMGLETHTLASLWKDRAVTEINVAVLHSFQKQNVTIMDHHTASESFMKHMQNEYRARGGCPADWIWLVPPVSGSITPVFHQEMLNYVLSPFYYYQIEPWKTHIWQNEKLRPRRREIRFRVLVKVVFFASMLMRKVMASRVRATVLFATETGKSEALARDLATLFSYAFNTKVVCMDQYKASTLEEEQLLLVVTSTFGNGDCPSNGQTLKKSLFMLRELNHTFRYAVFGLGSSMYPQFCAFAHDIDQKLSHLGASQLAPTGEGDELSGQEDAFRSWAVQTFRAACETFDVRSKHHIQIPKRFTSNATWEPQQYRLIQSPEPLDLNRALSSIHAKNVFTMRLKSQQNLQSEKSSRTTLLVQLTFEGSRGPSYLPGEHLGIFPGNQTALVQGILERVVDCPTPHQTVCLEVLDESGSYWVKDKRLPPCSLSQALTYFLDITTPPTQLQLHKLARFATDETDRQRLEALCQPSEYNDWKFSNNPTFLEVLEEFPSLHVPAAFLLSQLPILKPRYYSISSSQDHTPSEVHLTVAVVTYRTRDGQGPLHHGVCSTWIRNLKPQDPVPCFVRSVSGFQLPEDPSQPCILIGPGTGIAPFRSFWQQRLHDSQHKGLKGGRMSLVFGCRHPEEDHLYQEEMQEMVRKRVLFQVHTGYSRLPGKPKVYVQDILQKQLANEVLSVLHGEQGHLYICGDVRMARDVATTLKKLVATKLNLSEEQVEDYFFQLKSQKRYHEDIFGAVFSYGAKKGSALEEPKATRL
Procedure: iNOS Dimerization Inhibition assay. Raw 264.7 cells were grown to confuency in DMEM supplemented with 10% FBS and pen/strep. Cells were then plated into 96 well plates at 50,000 cells per well. After 12h of growth a serial dilution of test compound was added along with e.coli LPS (50 ug/ml final) and IFN-Y (500 ng/ml final) with a vehicle control. Compounds and cells were allowed to interact for 48 h to allow for full degradation of undrugged active dimeric species. After 48 h, 50 uL of the media from each well was removed and mixed with 50 uL Griess Reagent 1 (Promega Griess assay kit). This mixture was incubated for 5 mins and then 50 uL Reagent 2 was added. The plate was read at 530 nm and an IC50 calculated.

[3] = biological target: T3, eNOS (Bos taurus, UniProt P29473); assay: eNOS Dimerization Inhibition assay (Griess, Hek293 cells expressing bovine eNOS); format: cell-based
T3 construct: expressed in transfected cells; host or cells: HEK293 (stably transduced)
T3 sequence (P29473 1-1205): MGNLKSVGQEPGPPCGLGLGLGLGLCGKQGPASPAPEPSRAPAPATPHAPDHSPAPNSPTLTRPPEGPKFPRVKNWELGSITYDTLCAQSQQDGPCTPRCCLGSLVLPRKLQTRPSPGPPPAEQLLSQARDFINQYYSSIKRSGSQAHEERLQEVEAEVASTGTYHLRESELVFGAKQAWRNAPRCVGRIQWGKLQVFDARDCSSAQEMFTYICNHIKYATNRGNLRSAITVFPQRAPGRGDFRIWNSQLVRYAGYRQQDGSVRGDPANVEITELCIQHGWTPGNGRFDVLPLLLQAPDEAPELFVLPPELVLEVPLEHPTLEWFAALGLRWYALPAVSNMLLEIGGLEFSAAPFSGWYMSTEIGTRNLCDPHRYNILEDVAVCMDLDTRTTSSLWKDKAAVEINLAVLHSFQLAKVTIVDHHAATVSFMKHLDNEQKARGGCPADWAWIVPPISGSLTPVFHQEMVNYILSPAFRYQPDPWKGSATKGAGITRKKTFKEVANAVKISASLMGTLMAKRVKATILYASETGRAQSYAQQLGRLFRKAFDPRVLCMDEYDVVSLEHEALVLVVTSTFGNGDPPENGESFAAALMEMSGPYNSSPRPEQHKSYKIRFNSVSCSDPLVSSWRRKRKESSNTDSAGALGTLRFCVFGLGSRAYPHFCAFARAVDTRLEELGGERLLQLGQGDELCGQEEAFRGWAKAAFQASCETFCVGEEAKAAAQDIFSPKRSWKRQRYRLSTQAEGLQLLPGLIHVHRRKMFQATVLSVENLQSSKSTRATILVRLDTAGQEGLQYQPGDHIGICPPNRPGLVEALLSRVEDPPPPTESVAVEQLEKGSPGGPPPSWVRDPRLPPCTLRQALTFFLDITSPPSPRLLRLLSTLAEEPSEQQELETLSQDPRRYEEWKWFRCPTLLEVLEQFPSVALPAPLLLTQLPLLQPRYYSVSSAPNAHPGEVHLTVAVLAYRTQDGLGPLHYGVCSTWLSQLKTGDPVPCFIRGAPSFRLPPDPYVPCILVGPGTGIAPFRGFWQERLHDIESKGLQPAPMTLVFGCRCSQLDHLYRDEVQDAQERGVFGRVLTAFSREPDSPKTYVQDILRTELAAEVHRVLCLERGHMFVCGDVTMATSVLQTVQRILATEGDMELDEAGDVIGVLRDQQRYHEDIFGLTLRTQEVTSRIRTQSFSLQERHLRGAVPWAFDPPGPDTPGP
Procedure: as §1
eNOS Dimerization Inhibition assay. The nNOS protocol was followed substituting Hek293 cells stably transduced to express bovine eNOS

T1 sequence (P29476 whole entry): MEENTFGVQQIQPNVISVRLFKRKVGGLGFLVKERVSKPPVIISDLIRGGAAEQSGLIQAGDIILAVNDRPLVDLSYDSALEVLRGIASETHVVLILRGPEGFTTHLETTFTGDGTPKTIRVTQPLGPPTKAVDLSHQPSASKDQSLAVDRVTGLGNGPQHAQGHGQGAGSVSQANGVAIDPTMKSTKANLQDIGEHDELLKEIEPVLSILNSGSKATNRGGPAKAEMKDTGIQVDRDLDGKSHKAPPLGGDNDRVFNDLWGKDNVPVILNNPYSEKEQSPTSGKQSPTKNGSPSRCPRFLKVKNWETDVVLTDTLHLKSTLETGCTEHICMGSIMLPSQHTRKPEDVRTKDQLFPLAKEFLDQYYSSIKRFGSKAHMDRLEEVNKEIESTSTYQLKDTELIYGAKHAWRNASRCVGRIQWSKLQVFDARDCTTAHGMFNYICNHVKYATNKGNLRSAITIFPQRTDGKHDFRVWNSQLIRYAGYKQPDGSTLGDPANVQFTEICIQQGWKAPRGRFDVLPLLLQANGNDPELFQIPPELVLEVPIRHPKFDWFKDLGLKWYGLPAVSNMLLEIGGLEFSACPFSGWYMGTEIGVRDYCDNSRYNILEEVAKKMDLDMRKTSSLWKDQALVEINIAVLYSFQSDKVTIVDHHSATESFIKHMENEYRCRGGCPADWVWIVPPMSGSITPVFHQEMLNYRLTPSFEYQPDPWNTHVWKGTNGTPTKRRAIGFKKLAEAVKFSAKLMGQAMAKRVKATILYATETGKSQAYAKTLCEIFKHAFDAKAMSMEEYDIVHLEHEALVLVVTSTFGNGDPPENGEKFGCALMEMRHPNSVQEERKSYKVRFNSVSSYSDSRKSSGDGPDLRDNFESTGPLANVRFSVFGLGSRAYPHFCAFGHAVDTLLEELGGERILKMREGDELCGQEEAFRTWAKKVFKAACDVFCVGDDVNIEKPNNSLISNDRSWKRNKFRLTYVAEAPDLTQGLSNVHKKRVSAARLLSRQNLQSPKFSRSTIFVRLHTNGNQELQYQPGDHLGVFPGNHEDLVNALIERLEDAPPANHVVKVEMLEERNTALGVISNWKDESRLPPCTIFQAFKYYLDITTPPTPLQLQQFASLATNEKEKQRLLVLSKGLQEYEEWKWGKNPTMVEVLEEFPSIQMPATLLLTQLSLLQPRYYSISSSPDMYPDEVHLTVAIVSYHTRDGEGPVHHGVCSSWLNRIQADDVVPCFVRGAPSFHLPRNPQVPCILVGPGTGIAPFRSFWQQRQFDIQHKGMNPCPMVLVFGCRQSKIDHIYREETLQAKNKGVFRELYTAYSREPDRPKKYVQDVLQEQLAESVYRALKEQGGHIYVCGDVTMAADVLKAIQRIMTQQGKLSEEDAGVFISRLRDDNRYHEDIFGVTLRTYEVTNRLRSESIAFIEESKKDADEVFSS

Compound	IC50 [1] [µM]	IC50 [2] [µM]	IC50 [3] [µM]
O=C(C[C@H]1CCCN1c1ccnc(-n2ccnc2)n1)NCc1ccc2c(c1)OCO2 [Compound 1, (R)-2-[2-(1H-imidazol-1-yl)-4-pyrimidylpyrrolidin-2-yl)-N-(benzo[d][1,3]dioxo-5-ylmethyl)acetamide]	0.2	0.1	18
COc1ccc(CNC(=O)C[C@H]2CCCN2c2ccnc(-n3ccnc3)n2)cc1OC [Compound 2, (R)-2-[2-(1H-imidazol-1-yl)-4-pyrimidylpyrrolidin-2-yl]-N-(3,4-dimethoxybenzyl) acetamide]	0.14	0.62	21.1
CCOc1cc(CNC(=O)C[C@H]2CCCN2c2ccnc(-n3ccnc3)n2)ccc1OC [Compound 3, (R)-2-[2-(1H-imidazol-1-yl)-4-pyrimidylpyrrolidin-2-yl]-N-(3-ethoxy-4-methoxybenzy)acetamide]	6.7	3.7	57
(R)-2-[2-(1H-imidazol-1-yl)-4-pyrimidylpyrrolidin-2-yl]-N-(3-benzyl-4-methoxybenzyl)acetamide [Compound 5]	14.1	6	55
(R)-2-[2-(1H-imidazol-1-yl)-4-pyrimidylpyrrolidin-2-yl]-N-(4-methoxy-3-n-propylbenzyl)acetamide [Compound 4]	7.4	4.5	86
